# pIC50: −log10 of the molar value.
# Target: T1, recombinant human CCR5 receptor (Homo sapiens, UniProt P51681)
# T1 construct: expressed in transfected cells; host or cells: Chinese hamster ovary (CHO) cells; membranes
# Assay: Radioligand binding assay for inhibition of the binding of MIP-1α
# Conditions: displacement of 0.1 nM iodinated MIP-1α; membranes of Chinese hamster ovary cells expressing CCR5
# Summary of the method: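 Membranes from CHO cells expressing recombinant human CCR5 were incubated with 0.1 nM iodinated MIP-1α, scintillation proximity beads and compound at various concentrations. Bound radioligand was measured by scintillation counting.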
# T1 sequence (P51681 whole entry): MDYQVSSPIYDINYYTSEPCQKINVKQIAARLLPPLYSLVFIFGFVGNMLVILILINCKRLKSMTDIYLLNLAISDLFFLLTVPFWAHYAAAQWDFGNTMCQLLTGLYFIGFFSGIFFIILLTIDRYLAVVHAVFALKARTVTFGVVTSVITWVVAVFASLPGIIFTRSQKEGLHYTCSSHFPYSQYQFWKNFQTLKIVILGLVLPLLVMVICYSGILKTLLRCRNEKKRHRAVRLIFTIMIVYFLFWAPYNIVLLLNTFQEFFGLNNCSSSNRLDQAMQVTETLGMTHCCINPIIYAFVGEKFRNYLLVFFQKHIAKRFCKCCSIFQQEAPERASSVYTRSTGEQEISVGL
row,Compound,pIC50
1,"O=C(Nc1ccc(Cl)c(Cl)c1)N1CCN(C[C@@H]2CCCN(Cc3ccc(O)nc3)C2)CC1 [Example 257, N-(3,4-dichlorophenyl)-4-({(3R)-1-[(6-hydroxypyridin-3-yl)methyl]piperidin-3-yl}methyl)piperazine-1-carboxamide]",> 5.00
2,"COCCOc1ccc(CN2CCC[C@@H](CN3CCN(C(=O)Nc4ccc(Cl)c(Cl)c4)CC3)C2)cn1 [Example 258, N-(3,4-dichlorophenyl)-4-[((3R)-1-{[6-(2-methoxyethoxy)pyridin-3-yl]methyl}piperidin-3-yl)methyl]piperazine-1-carboxamide]",> 5.00
3,"CC(C)N1CCN[C@@H](C(=O)N2CCN(C(=O)Nc3cccc(Oc4ccccc4)c3)CC2)C1 [Example 260, 4-{[(2R)-4-Isopropylpiperazin-2-yl]carbonyl}-N-(3-phenoxyphenyl) piperazine-1-carboxamide]",> 5.00
4,"CC(C)N1CCN[C@@H](C(=O)N2CCN(C(=O)Nc3ncc(Cl)s3)CC2)C1 [Example 264, N-(5-Chloro-1,3-thiazol-2-yl)-4-{[(2R)-4-isopropylpiperazin-2-yl]carbonyl}piperazine-1-carboxamide]",> 5.00
5,"CC(C)N1CCN[C@@H](C(=O)N2CCN(C(=O)Nc3ccc(Cl)c(F)c3)CC2)C1 [Example 265, N-(4-Chloro-3-fluorophenyl)-4-{[(2R)-4-isopropylpiperazin-2-yl]carbonyl}piperazine-1-carboxamide]",> 5.00
6,"Nc1ncccc1CN1CCCC(CN2CCN(C(=O)Nc3ccc(F)c(Cl)c3)CC2)C1 (stereo not drawn) [Example 266, 4-({1-[(2-aminopyridin-3-yl)methyl]piperidin-3-yl}methyl)-N-(3-chloro-4-fluorophenyl)piperazine-1-carboxamide]",> 5.00
7,"O=C(Nc1ccc(Cl)c(Cl)c1)N1CCN(C(=O)[C@H]2CN(CC3CC3)CCN2)CC1 [Example 268, 4-{[(2R)-4-(cyclopropylmethyl)piperazin-2-yl]carbonyl}-N-(3,4-dichlorophenyl)piperazine-1-carboxamide]",> 5.00
8,"CC(CC(C)(C)O)N1CCN[C@@H](C(=O)N2CCN(C(=O)Nc3ccc(Cl)c(Cl)c3)CC2)C1 (stereo partly drawn) [Example 269, N-(3,4-dichlorophenyl)-4-{[(2R)-4-(3-hydroxy-1,3-dimethylbutyl)piperazin-2-yl]carbonyl}piperazine-1-carboxamide]",> 5.00
9,"CCCC(C)N1CCN[C@@H](C(=O)N2CCN(C(=O)Nc3ccc(Cl)c(Cl)c3)CC2)C1 (stereo partly drawn) [Example 270, N-(3,4-dichlorophenyl)-4-{[(2R)-4-(1-methylbutyl)piperazin-2-yl]carbonyl}piperazine-1-carboxamide]",> 5.00
10,"O=C(Nc1ccc(Cl)c(Cl)c1)N1CCN(C(=O)[C@H]2CN(CC3CCOC3)CCN2)CC1 (stereo partly drawn) [Example 271, N-(3,4-dichlorophenyl)-4-{[(2R)-4-(tetrahydrofuran-3-ylmethyl)piperazin-2-yl]carbonyl}piperazine-1-carboxamide]",> 5.00
11,"O=C(Nc1ccc(Cl)c(Cl)c1)N1CCN(C(=O)[C@H]2CN(CCCc3ncc(F)cn3)CCN2)CC1 [Example 273, N-(3,4-dichlorophenyl)-4-({(2R)-4-[3-(5-fluoropyrimidin-2-yl)propyl]piperazin-2-yl}carbonyl)piperazine-1-carboxamide]",> 5.00
12,"O=C(Nc1ccc(Cl)c(Cl)c1)N1CCN(C(=O)[C@H]2CN(C3CCC3)CCN2)CC1 [Example 275, 4-{[(2R)-4-Cyclobutylpiperazin-2-yl]carbonyl}-N-(3,4-dichlorophenyl)piperazine-1-carboxamide]",> 5.00
13,"O=C(Nc1ccc(Cl)c(Cl)c1)N1CCN(C(=O)[C@H]2CN(C3CCCC3)CCN2)CC1 [Example 276, 4-{[(2R)-4-Cyclopentylpiperazin-2-yl]carbonyl}-N-(3,4-dichlorophenyl)piperazine-1-carboxamide]",> 5.00
14,"O=C(Nc1ccc(Cl)c(Cl)c1)N1CCN(C(=O)[C@H]2CN(C3CCCCC3)CCN2)CC1 [Example 277, 4-{[(2R)-4-Cyclohexylpiperazin-2-yl]carbonyl}-N-(3,4-dichlorophenyl)piperazine-1-carboxamide]",> 5.00
15,"O=C(Nc1ccc(Cl)c(Cl)c1)N1CCN(C(=O)[C@H]2CN(C3CCC(O)(c4ccccn4)CC3)CCN2)CC1 (stereo partly drawn) [Example 279, N-(3,4-Dichlorophenyl)-4-{[(2R)-4-(4-hydroxy-4-pyridin-2-ylcyclohexyl)piperazin-2-yl]carbonyl}piperazine-1-carboxamide]",> 5.00
16,"O=C(Nc1ccc(Cl)c(Cl)c1)N1CCN(C(=O)[C@H]2CN(C3CCSCC3)CCN2)CC1 [Example 280, N-(3,4-Dichlorophenyl)-4-{[(2R)-4-(tetrahydro-2H-thiopyran-4-yl)piperazin-2-yl]carbonyl}piperazine-1-carboxamide]",> 5.00

# Now from value to compound:
row,pIC50,Compound
1,> 5.00,"CC(C1CC1)N1CCN[C@@H](C(=O)N2CCN(C(=O)Nc3ccc(Cl)c(Cl)c3)CC2)C1 (stereo partly drawn) [Example 281, 4-{[(2R)-4-(1-Cyclopropylethyl)piperazin-2-yl]carbonyl}-N-(3,4-dichlorophenyl)piperazine-1-carboxamide]"
2,> 5.00,"CC(C)N1CCN[C@@H](C(=O)N2CCN(C(=O)Nc3cc(Cl)cc(Cl)c3)CC2)C1 [Example 287, N-(3,5-Dichlorophenyl)-4-{[(2R)-4-isopropylpiperazin-2-yl]carbonyl}piperazine-1-carboxamide]"
3,> 5.00,"CC(C)N1CCN[C@@H](C(=O)N2CCN(C(=O)Nc3cc(F)cc(C(F)(F)F)c3)CC2)C1 [Example 288, N-[3-Fluoro-5-(trifluoromethyl)phenyl]-4-{[(2R)-4-isopropylpiperazin-2-yl]carbonyl}piperazine-1-carboxamide]"
4,> 5.00,"CC(C)N1CCN[C@@H](C(=O)N2CCN(C(=O)Nc3nc(C(F)(F)F)cs3)CC2)C1 [Example 290, 4-{[(2R)-4-Isopropylpiperazin-2-yl]carbonyl}-N-[4-(trifluoromethyl)-1,3-thiazol-2-yl]piperazine-1-carboxamide]"
5,> 5.00,"CC(C)N1CCN[C@@H](C(=O)N2CCN(C(=O)Nc3ccc(C#N)c(C(F)(F)F)c3)CC2)C1 [Example 292, N-[4-Cyano-3-(trifluoromethyl)phenyl]-4-{[(2R)-4-isopropylpiperazin-2-yl]carbonyl}piperazine-1-carboxamide]"
6,> 5.00,"C=CCN1CCN[C@@H](C(=O)N2CCN(C(=O)Nc3ccc(Cl)c(Cl)c3)CC2)C1 [Example 303, N-(3,4-dichlorophenyl)-4-{[(2R)-4-(prop-2-en-1-yl)piperazin-2-yl]carbonyl}piperazine-1-carboxamide]"
7,> 5.00,"C=C(C)CN1CCN[C@@H](C(=O)N2CCN(C(=O)Nc3ccc(Cl)c(Cl)c3)CC2)C1 [Example 304, N-(3,4-dichlorophenyl)-4-{[(2R)-4-(2-methylprop-2-en-1-yl)piperazin-2-yl]carbonyl}piperazine-1-carboxamide]"
8,> 5.00,"CC(C)N1CCN[C@@H](C(=O)N2CCN(C(=O)Nc3ccc(C(F)(F)F)cn3)CC2)C1 [Example 311, 4-{[(2R)-4-isopropylpiperazin-2-yl]carbonyl}-N-[5-(trifluoromethyl)pyridin-2-yl]piperazine-1-carboxamide]"
9,> 5.00,"CS(=O)(=O)c1ccc(CN2CCC[C@@H](CN3CCN(C(=O)Nc4ccc(Cl)c(Cl)c4)CC3)C2)c(Cl)c1 [Example 322, 4-({(3R)-1-[2-Chloro-4-(methylsulfonyl)benzyl]piperidin-3-yl}methyl)-N-(3,4-dichlorophenyl)piperazine-1-carboxamide]"
10,> 5.00,"Cc1ccc(NC(=O)N2CCN(C[C@@H]3CCCN(CCCc4ccc(S(C)(=O)=O)cc4)C3)CC2)cc1Cl [Example 324, N-(3-Chloro-4-methylphenyl)-4-[((3R)-1-{3-[4-(methylsulfonyl)phenyl]propyl}piperidin-3-yl)methyl]piperazine-1-carboxamide]"
11,> 5.00,"CS(=O)(=O)c1ccc(CCCN2CCC[C@@H](CN3CCN(C(=O)Nc4ccc(Cl)cc4)CC3)C2)cc1 [Example 325, N-(4-Chlorophenyl)-4-[((3R)-1-{3-[4-(methylsulfonyl)phenyl]propyl}piperidin-3-yl)methyl]piperazine-1-carboxamide]"
12,> 5.00,"CS(=O)(=O)c1ccc(CCCN2CCC[C@@H](CN3CCN(C(=O)Nc4ccc(C(F)(F)F)cc4)CC3)C2)cc1 [Example 326, 4-[((3R)-1-{3-[4-(Methylsulfonyl)phenyl]propyl}piperidin-3-yl)methyl]-N-[4-(trifluoromethyl)phenyl]piperazine-1-carboxamide]"
13,> 5.00,"CS(=O)(=O)c1ccc(CCCN2CCC[C@@H](CN3CCN(C(=O)Nc4cccc(Cl)c4)CC3)C2)cc1 [Example 327, N-(3-Chlorophenyl)-4-[((3R)-1-{3-[4-(methylsulfonyl)phenyl]propyl}piperidin-3-yl)methyl]piperazine-1-carboxamide]"
14,> 5.00,"CS(=O)(=O)c1ccc(CCCN2CCC[C@@H](CN3CCN(C(=O)Nc4ccc(Cl)c(Cl)c4)CC3)C2)cc1 [Example 328, N-(3,4-Dichlorophenyl)-4-[((3R)-1-{3-[4-(methylsulfonyl)phenyl]propyl}piperidin-3-yl)methyl]piperazine-1-carboxamide]"

# From patent US8710224B2, “Heterocyclic compounds as CCR2B antagonists” (AstraZeneca AB, priority 2004, dated 2014)
